Legend:
[1] = tested on: E. coli DH5α transformed with recombinant NDM-1 (pQE-2- NDM-1); assay: microbe, parasite or virus in culture; type: cell-based; settings: for Minimum inhibitory concentration: (pQE-2- NDM-1) DH5α; for MIC: Escherichia coli, read-out: Minimum inhibitory concentration; for MIC of antibiotic when combined with each of the five molecules: bla NDM-1 clone, combined with M1, M17, M21, M61 or M75
Experimental: (§1) The MIC was determined for E. coli DH5α cells, E. coli DH5α cells with vector and E. coli DH5α cells with bla NDM-1 carrying vectors. […] We next assayed the activities of these drugs in combination with novel screened molecules.
(§2) The MICs of four antibiotics were calculated (Table 4).

[2] = tested on: original DH5α (with null vector) (pQE-2- Original); assay: microbe, parasite or virus in culture; type: cell-based, E. coli; settings: (pQE-2- Original) DH5α; for MIC: Escherichia coli, read-out: Minimum inhibitory concentration
Experimental: as §1, §2

How did the Minimum inhibitory concentration [1] turn out when `C[C@@H](O)[C@H]1C(=O)N2C(C(=O)O)=C(SCCN=CN)C[C@H]12` [Imipenem] was run?
The Minimum inhibitory concentration was 2.00 µg/mL.

What about the MIC [1] of the same compound?
Its MIC is 2 µg/mL.

And the “MIC of antibiotic when combined with each of the five molecules” value (from here on “MIC of antibiotic when combined”) [1]?
Its value is 1 µg/mL.

And the MIC [2]?
The MIC was 0.5 µg/mL.

For `C[C@@H](O)[C@H]1C(=O)N2C(C(=O)O)=C(S[C@@H]3CN[C@H](C(=O)N(C)C)C3)[C@H](C)[C@H]12` [Meropenem], which Minimum inhibitory concentration [1] is on record?
The Minimum inhibitory concentration was 2.00 µg/mL.

And the MIC [1]?
Its MIC is 2 µg/mL.

What about the “MIC of antibiotic when combined” value [1] of the same compound?
Its value is 1 µg/mL.

And the MIC [2]?
Its MIC is 0.5 µg/mL.

Which results are given for `CO[C@@]1(NC(=O)Cc2cccs2)C(=O)N2C(C(=O)O)=C(COC(N)=O)CS[C@@H]21` [Cefoxitin]?
Minimum inhibitory concentration [1]: 16.0 µg/mL; MIC [1]: 16 µg/mL; MIC of antibiotic when combined with each of the five molecules [1]: 8 µg/mL; MIC [2]: 2 µg/mL

For `CC(C)(O/N=C(\C(=O)N[C@@H]1C(=O)N2C(C(=O)[O-])=C(C[n+]3ccccc3)CS[C@H]12)c1csc(N)n1)C(=O)O` [Ceftazidime], which Minimum inhibitory concentration [1] is on record?
The Minimum inhibitory concentration was 8.00 µg/mL.

What about the MIC [1] of the same compound?
Its MIC is 8 µg/mL.

And the “MIC of antibiotic when combined” value [1]?
The value was 4 µg/mL.

And the MIC [2]?
Its MIC is 0.25 µg/mL.

How did the Minimum inhibitory concentration [1] turn out when `CO/N=C(\C(=O)N[C@@H]1C(=O)N2C(C(=O)O)=C(COC(C)=O)CS[C@H]12)c1csc(N)n1` [Cephotaxime] was run?
The Minimum inhibitory concentration was 512 µg/mL.

And the Minimum inhibitory concentration [2]?
The Minimum inhibitory concentration was 0.25 µg/mL.
